The numbers were not newly measured in patent US20110294894A1, “Pharmaceutical Composition for the Treatment of Solar Urticaria” (priority 2010, published 2011), which cites them from elsewhere.

The data set has as its system severe antihistamine-resistant solar urticaria. The conditions noted are these: single case, Güzelbey et al., 2008.

Regarding omalizumab, the “effectiveness in solar urticaria” value is on record as “effective”.
